The source made the active and inactive calls. No cut-off for these calls is given here.
Tests used:
Format in all cases: cell-based
[1] = target: T1, Vitamin D3 receptor (Homo sapiens, UniProt P11473); test: Inhibition of human recombinant GAL4N-fused VDR LBD expressed in HEK293 cells using 1,25(OH)2D3 as substrate assessed as inhibition of cofactor interaction after 16 to 18 hrs by luciferase reporter gene assay
T1 sequence (P11473 whole entry): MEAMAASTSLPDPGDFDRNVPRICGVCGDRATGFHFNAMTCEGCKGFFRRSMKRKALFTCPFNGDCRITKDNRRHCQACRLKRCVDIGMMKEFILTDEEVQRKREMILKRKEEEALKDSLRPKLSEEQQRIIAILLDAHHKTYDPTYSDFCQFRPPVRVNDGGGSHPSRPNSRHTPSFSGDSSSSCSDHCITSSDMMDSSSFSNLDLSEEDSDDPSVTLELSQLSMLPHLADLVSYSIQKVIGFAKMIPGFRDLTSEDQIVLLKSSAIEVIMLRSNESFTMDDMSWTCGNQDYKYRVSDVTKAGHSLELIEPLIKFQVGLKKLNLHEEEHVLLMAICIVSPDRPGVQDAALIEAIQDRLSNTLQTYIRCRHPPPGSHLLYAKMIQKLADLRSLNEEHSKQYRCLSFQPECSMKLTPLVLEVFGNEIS

[2] = target: T2, Vitamin D3 receptor (Homo sapiens) (UniProt P11473); test: Inhibition of human recombinant GAL4N-fused VDR LBD expressed in HEK293 cells using 1,25(OH)2D3 as substrate assessed as inhibition of cofactor interaction at 30 uM after 16 to 18 hrs by luciferase reporter gene assay relative to control
T2 sequence (whole entry): T1 sequence (P11473 whole entry)

[3] = test system: HEK293; test: Cytotoxicity to human HEK293 cells at 30 uM after 16 to 18 hrs; conditions: hek293, 30 µM

CC(C)CCN1Cc2cc(-c3ccccc3)c(N)cc2N[C@@H](CC(C)C)C1=O
IC50 [1]: 24 µM

CC(C)CCN1Cc2cc(I)c(N)cc2N[C@@H](CC(C)C)C1=O
IC50 [1]: 30 µM

CC/C=C/c1ccc2c(c1)CN(CCC(C)C)C(=O)[C@H](CC(C)C)N2
inhibition [2]: inactive

CC(C)CCN1Cc2cc(CC(C)C)ccc2N[C@@H](CC(C)C)C1=O
inhibition [2]: 45% | IC50 [1]: > 30 µM

CC(C)CCN1Cc2cc(CCCO)ccc2N[C@@H](CC(C)C)C1=O
inhibition [2]: 9% | IC50 [1]: > 30 µM

CCC/C=C/c1cc2c(cc1N)N[C@@H](CC(C)C)C(=O)N(CCC(C)C)C2
Activity [3]: Toxic

CC/C=C/c1cc2c(cc1N)N[C@@H](CC(C)C)C(=O)N(CCC(C)C)C2
inhibition [2]: 48% | IC50 [1]: > 30 µM

CC(C)CCN1Cc2ccccc2N[C@@H](CC(C)C)C1=O
inhibition [2]: 29% | IC50 [1]: > 30 µM

CC(C)CCN1Cc2cc(CCCCO)ccc2N[C@@H](CC(C)C)C1=O
inhibition [2]: inactive

CCOC(=O)c1ccc(-c2cc3c(cc2N)N[C@@H](CC(C)C)C(=O)N(CCC(C)C)C3)cc1
IC50 [1]: 14 µM

CC(C)=Cc1cc2c(cc1N)N[C@@H](CC(C)C)C(=O)N(CCC(C)C)C2
IC50 [1]: 26 µM

CCOC(=O)c1ccc(-c2cc3c(cc2N)N[C@@H](CC(C)C)C(=O)N(CCC(C)C)C3)c(OCCO)c1
IC50 [1]: 20 µM

CC(C)CCN1Cc2cc(I)ccc2N[C@@H](CC(C)C)C1=O
inhibition [2]: 30% | IC50 [1]: > 30 µM

CCCCCc1cc2c(cc1N)N[C@@H](CC(C)C)C(=O)N(CCC(C)C)C2
inhibition [2]: 47% | IC50 [1]: > 30 µM

CCCCc1cc2c(cc1N)N[C@@H](CC(C)C)C(=O)N(CCC(C)C)C2
IC50 [1]: 25 µM

CC(C)CCN1Cc2cc(/C=C/CCO)ccc2N[C@@H](CC(C)C)C1=O
inhibition [2]: 28% | IC50 [1]: > 30 µM

CC(C)CCN1Cc2cc(/C=C/CO)ccc2N[C@@H](CC(C)C)C1=O
inhibition [2]: 27% | IC50 [1]: > 30 µM

CC(C)CCN1Cc2ccc(N)cc2N[C@@H](CC(C)C)C1=O
inhibition [2]: 7% | IC50 [1]: > 30 µM

CC(C)=Cc1ccc2c(c1)CN(CCC(C)C)C(=O)[C@H](CC(C)C)N2
inhibition [2]: inactive

C=C(CC)c1ccc2c(c1)CN(CCC(C)C)C(=O)[C@H](CC(C)C)N2
inhibition [2]: 32% | IC50 [1]: > 30 µM

CC(C)CCN1Cc2cc(-c3ccc(C(=O)O)cc3)c(N)cc2N[C@@H](CC(C)C)C1=O
inhibition [2]: 8% | IC50 [1]: > 30 µM

— ChEMBL document CHEMBL2321706, “Structure-activity relationship of benzodiazepine derivatives as LXXLL peptide mimetics that inhibit the interaction of vitamin D receptor with coactivators” (Bioorg Med Chem, 2013)
